Measurements taken from US9828344B2, “Inhibitors of the notch signaling pathway and secretion for use in medicine” (Leibniz-Institut für Altersforschung Fritz-Lipmann-Institut …, priority 2012, dated 2017).
Peptide text beside a SMILES is read from it. * marks the point of attachment. Cbz = O=C(OCc1ccccc1)*; OtBu = CC(C)(C)O*

Tests used:
[1] = test system: NotchΔE-EGFP; test: Fluorescence microscopy of reporter localization in HeLa NotchΔE-EGFP cells; assay type: cell-based; details: 50 μM compound
[2] = test system: APP; test: APP processing in HEK293 cells stably expressing APPswe; assay type: cell-based; details: 10 μM, 16 h
Experimental: (§1) FIG. 3: Effect of compounds on NotchΔE-EGFP, APP and Klotho trafficking and processing. a) HEK293 stably expressing APPswe or Klotho (KI) were incubated with DAPT or compounds (10 μM) for 16 h. Media were collected, cells lysed and both assayed by Western blotting using indicated antibodies. m, mature; im, immature; s, shedded ectodomain; CTF, C-terminal fragment. b) Membranes from HeLa-NotchΔE-EGFP and APPswe cells were isolated and subjected to a γ-secretase in vitro assay in the presence of DAPT or compounds as indicated. NICD and AICD were detected by Western Blotting using antibodies against the C-terminus of APP (top) or antibodies specific for NICD (bottom). c) Quantitation from 5 independent experiments.
To test if the compounds that affected NotchΔE-EGFP processing also affected APP processing, HEK293 cells were used that stably expressed APPswe, a mutated APP that yields robust amounts of Aβ^18. […] All other compounds had no effect on APPCTF or Aβ.
APP, APPs, APPCTF and Aβ detection was as described before^54 using antibodies 22C11 for APP and APPs, 6687 for APPCTF and 3552 and 2D8 for Aβ. Klotho was detected as described in Bloch et al.^20. Chemoluminescence was quantified on a LAS-4000 (Fuji) with MultiGauge software.

[3] = test system: endogenous Notch signaling; test: Luciferase Notch reporter assay in C2C12 cells transfected with Delta; assay type: cell-based; details: 16 h
Experimental: (§2) Cells were incubated with DAPT or 10 μM of the indicated compounds (50 μM in case of FLI-15 and -20) and after 16 h a luciferase assay was performed. […] Changes in relative gene expression levels (fold change) relative to the expression levels in DMSO controls are represented as the mean+/−SD, asterisks indicate p<0.01. Each measurement was taken from two independent samples. Each reaction was measured in triplicate. Changes in the relative expression of ngn1 were standardized to the expression of the housekeeping gene ef1a at 20 hpf. c) ISH with riboprobes specific for ngn1 was performed on dechorionated stage 4 hpf zebrafish embryos. Anterior is to the left, dorsal to the top. Magnifications of the somite region (small box) are shown. Arrows indicate larger ngn1 clusters or stronger ngn1 staining. s, sensory neurons; i, intermediate neurons; m, motor neurons.
(§3) We wanted to test whether the results obtained with the NotchΔE-EGFP construct are relevant for endogenous Notch signaling. Therefore we made use of C2C12 cells, a well established model for muscle development that expresses endogenous Notch^21,22. After stimulating endogenous Notch signaling by transfecting the Notch ligand Delta, Notch activity was measured by a luciferase assay using a Notch reporter^15 in the presence or absence of compounds (FIG. 4a). […] Next, we tested whether selected compounds would affect Notch signaling in vivo. […] Compounds were added to dechorionated stage 4 hpf zebrafish embryos and the effects were analyzed after 24 h by morphological inspection of somite formation. Phenotypes were ranked to four categories, normal somites, mild somite defects, strong somite defects and developmental delay. […] As an additional parameter we decided to analyze Notch-dependent genes involved in neurogenesis. Primary neurogenesis in zebrafish involves the selection of neuroblasts (repressed by Notch) from proneural clusters (Notch expressing cells), a process regulated in a negative manner by Notch-dependent lateral inhibition^25. Accordingly, neuroblast cells that express the neuronal specification factor neurogenin (ngn1^26) became more abundant when Notch signaling was impaired, for instance upon DAPT treatment^23,27. qPCR analyses on mRNA extracted from equivalent sets of embryos was performed for ngn1 expression (FIG. 4b). […] To confirm the data obtained by qPCR, whole-mount in-situ hybridizations (ISH) using an ngn1 specific riboprobe were performed (FIG. 4c, FIG. 11c). […] Taken together, FLI-06, -14, -15, -19 and -20 inhibited endogenous Notch signaling in vitro and in vivo, corroborating the NotchΔE-EGFP reporter data.
Endogenous Notch signaling in C2C12 was determined by a luciferase assay using a 12xCSL-luciferase reporter and transfected Delta as described before^15.

[4] = test system: NotchΔE-EGFP; test: Reporter localization in U2OS cells stably expressing NotchΔE-EGFP; assay type: cell-based; details: 10 iM, 18 h
Experimental: FIG. 9: Compound effects are not cell-type specific. U2OS cells stably expressing NotchΔE-EGFP were incubated for 18 h with 10 iM compounds as indicated, fixed and imaged by fluorescence microscopy. […] Arrows, plasma membrane; arrowheads, ER. Asterisks indicate cells where the ER collapsed to large aggregates. Scalebar, 10 im.

[5] = test system: γ-secretase; test: In vitro γ-secretase assay with isolated membranes; assay type: biochemical; details: 37° C.
Experimental: as §1
To test whether FLI-06 affected other membrane proteins, Klotho, a type I protein processed like APP and Notch^20, was analyzed. […] To analyze γ-secretase activity, in vitro assays using isolated membranes were performed (FIG. 3b, c). Production of NICD-EGFP and AICD (APP intracellular domain) were assayed. Both were produced in vitro at 37° C. but not at 4° C., and their production was inhibited by DAPT.
For assaying AICD formation, membranes of HEK293 cells stably expressing APP with the Swedish mutation were isolated and incubated for 4 h at 37° C. according to Sastre et al.^52. For assaying NICD formation, membranes from HeLa NotchΔE-EGFP cells were mixed with membranes from HeLa NotchΔE-EGFP cells that were pre-treated with 10 μM DAPT overnight to enrich substrate. After incubation samples were loaded onto either 8% SDS-PA gels (NICD) or 10-20% Tris-Tricine gels (AICD), blotted and probed with cleaved-Notch antibody or antibody 6687 against APP C-terminus^53. Chemoluminescence was quantified on a LAS-4000 (Fuji) with MultiGauge software.

[6] = test system: zebrafish embryos; test: Zebrafish embryo Notch phenotype (somites, ngn1 qPCR and ISH); assay type: in vivo, zebrafish Danio rerio; details: 50 μM; for ngn1 positive cell clusters in the developing brain (ISH): compared to DMSO controls; for ngn1 positive cell clusters along the spinal cord (ISH): compared to DMSO-treated control embryos; for ngn1 mRNA levels (qPCR): relative to DMSO controls
Experimental: as §2
FIG. 11: Selected compounds affect somite formation and neurogenesis in vivo in zebrafish embryos. a) Lateral view of typical representative phenotypes induced by DAPT treatment, which were used as a reference to score the effect of compounds. […] Images were taken at 24 hpf. b) Pie chart showing the cumulative relative frequency of the phenotypes in a) at 24 hpf in embryos treated with 20, 50 and 100 iM of the indicated compounds. c) ISH with riboprobes specific for ngn1 was performed on dechorionated stage 4 hpf zebrafish embryos. Anterior is to the left, dorsal to the top. Magnifications of the developing head (box) are shown. Arrows indicate larger ngn1 clusters or stronger ngn1 staining. t, telencephalon; p, protectum; h, hindbrain; d, diencephalon; tg, tegmentum; vrc, ventral rostral cluster.
as §3
Embryos were obtained from natural spawning of wild-type TüAB strain adults, raised and staged according to supp. Ref 14. DAPT and compounds were applied at 50 iM in E3 embryo medium to zebrafish embryos with chorions torn but not completely removed from sphere stage until the stage of analysis, according to ref 23. Control embryos were mock treated with the same concentration of DMSO dissolved in E3 embryo medium. […]

SMILES | localization of NotchΔE-EGFP/NICD-EGFP [1] | APPCTF in cells [2] | Aβ in the cell supernatant [2] | inhibition of endogenous Notch signaling ([3]; 10 μM) | inhibition of endogenous Notch signaling ([3]; 50 μM) | localization of NotchΔE-EGFP in U2OS cells [4] | NICD-EGFP and AICD production in isolated membranes [5] | ngn1 positive cell clusters in the developing brain (ISH) [6] | ngn1 positive cell clusters along the spinal cord (ISH) [6] | ngn1 mRNA levels (qPCR) [6] | APPs (shedded ectodomain) secretion [2] | glycosylation pattern of APP [2]
Cc1ccc(NC(=O)C(NS(=O)(=O)c2cccc3nsnc23)C(C)C)nc1 (centres unmarked) [FLI-15] | strong reduction of nuclear NICD-EGFP fluorescence and concomitant accumulation at the PM | accumulated | weakly reduced | hardly affected Notch signaling | remarkably | PM accumulation similar to DAPT | clearly reduced NICD-EGFP and AICD production | differentially expanded | expanded and denser clusters of ngn1 positive cells | significantly increased |  | 
CC(C)CC(NC(=O)C(Cc1ccccc1)NC(=O)C1CCCN1C(=O)OCc1ccccc1)C(=O)OC(C)(C)C (stereo not drawn) [FLI-19] (Cbz-Pro-Phe-Leu-OtBu; configuration not given here) | strong reduction of nuclear NICD-EGFP fluorescence and concomitant accumulation at the PM |  |  | considerably |  | PM accumulation similar to DAPT | did not affect γ-secretase in isolated membranes |  | increased | did not induce significant changes | reduced APPs secretion | 
CC1=C(C(=O)OC2CCCCC2)C(c2ccc([N+](=O)[O-])cc2)C2=C(CC(C)(C)CC2=O)N1 (centres unmarked) [FLI-06, Cyclohexyl 4-(4′-nitrophenyl)-2,7,7-trimethyl-5-oxo-1,4,5,6,7,8-hexahydroquinoline-3-carboxylate] |  | no APPCTF accumulated | essentially disappeared | strongly |  | ER accumulation of the reporter and in some cells aggregation | did not affect γ-secretase in isolated membranes | differentially expanded | expanded and denser clusters of ngn1 positive cells | significantly increased | abolished the shedding of APPs | changed the glycosylation pattern of APP
Cn1c2ccccc2c2c(C(=O)N3CCN(Cc4ccc5c(c4)OCO5)CC3)cn(C3CCCC3)c(=O)c21 [FLI-14] | strong reduction of nuclear NICD-EGFP fluorescence and concomitant accumulation at the PM | accumulated | essentially disappeared | strongly |  | PM accumulation similar to DAPT | did not affect γ-secretase in isolated membranes | differentially expanded | expanded and denser clusters of ngn1 positive cells | significantly increased |  | 
CC(=O)Nc1ccc2nc(NC(=O)CC34CC5CC(CC(C5)C3)C4)sc2c1 [FLI-20] | strong reduction of nuclear NICD-EGFP fluorescence and concomitant accumulation at the PM | accumulated | weakly reduced | hardly affected Notch signaling | remarkably | PM accumulation similar to DAPT | clearly reduced NICD-EGFP and AICD production | differentially expanded | expanded and denser clusters of ngn1 positive cells | significantly increased | reduced APPs secretion | 
